Test results from patent US7049322B2 (priority 2002, dated 2006).

What was measured:
[1] = Moisture sorption/desorption (VTI SGA-100 moisture balance); format: physicochemical; conditions: for hygroscopicity: 5 to 95% RH
From the text: The samples were not dried prior to analysis.

[2] = XRPD after storage in a closed vial at ambient conditions; format: physicochemical; conditions: 31 days
Experimental: X-ray powder diffraction analyses were carried out on a Shimadzu XRD-6000 X-ray powder diffractometer using Cu Kα radiation having a wavelength of 1.5406 Å. The instrument is equipped with a fine-focus X-ray tube. The tube power was set by setting potential difference at 40 kV, and current 40 mA. The divergence and scattering slits were set at 1° and the receiving slit was set at 0.15 mm. Diffracted radiation was detected by a NaI scintillation detector. A theta-two theta continuous scan at 3°/min (0.4 sec/0.02° step) from 2.5 to 40 °2θ was performed. A silicon standard was analyzed each day to check the instrument alignment. Each sample was analyzed in a quartz sample holder. A variable temperature (VT-XRPD) experiment was performed on one form. The sample was prepared for analysis by pressing it into a variable temperature holder. A powder pattern was collected initially at 35° C. and again, after heating, at 200° C.

[3] = Dehydration/desolvation under vacuum, XRPD; format: physicochemical
From the text: The characterization of this weight loss as THF solvent is supported by the ^1H NMR data.

[4] = clinical trials, cited from earlier work

For CC[C@@]1(O)C(=O)OCc2c1cc1n(c2=O)Cc2cc3c([N+](=O)[O-])cccc3nc2-1 [Form A, 9-nitrocamptothecin], the “water gained upon equilibration to 5% RH” value ([1]; 5% RH) was 0.01% and the hygroscopicity [1] was “not hygroscopic”.

For CC[C@@]1(O)C(=O)OCc2c1cc1n(c2=O)Cc2cc3c([N+](=O)[O-])cccc3nc2-1 [Form B, 9-nitrocamptothecin], the “stability of the crystalline polymorph (XRPD pattern unchanged)” value [2] was “relatively stable”, the “water lost upon equilibration at 5% RH” value ([1]; 5% RH) was 0.98% and the hygroscopicity [1] was “relatively hygroscopic”.

In the case of CC[C@@]1(O)C(=O)OCc2c1cc1n(c2=O)Cc2cc3c([N+](=O)[O-])cccc3nc2-1 [Form C, 9-nitrocamptothecin], the “form after attempted desolvation” value [3] is reported as “becomes amorphous”.

In the case of CC[C@@](O)(C(=O)[O-])c1cc2n(c(=O)c1CO)Cc1cc3ccccc3nc1-2.[Na+] [Sodium camptothecin], the side effects ([4]; administered intravenously) is listed as “unpredictable side effects such as myelosuppression and hemorrhagic cystitis” and the antineoplastic activity ([4]; early 1970's) is listed as “found to have antineoplastic activity”.
